# Measured values published in patent US11584710B2, “Compounds for treating infections” (HORITZONTS TECNOLOGICS HUNGARY KORLÁTOLT FELELOSSÉGU …, priority 2017, dated 2023).
# Legend:
# Assay type in all cases: cell-based
# A. baumannii = test: Kirby-Bauer disk diffusion susceptibility test; settings: 300 μg/disc
# Protocol: (§1) Bacterial strains, from clinical origin, were supplied by the National Center for Microbiology, Institute of Health Carlos III (Majadahonda, Madrid). They are detailed in Table 1.
# (§2) Bacterial cells suspension in sterile saline was prepared from a culture of 24-72 h, depending on bacterial species, in Mueller-Hinton Agar with 5% sheep blood. Each suspension was adjusted to a fixed size inoculum of 1-5×10^8 CFU/ml with a spectrophotometer (Ferraro, MJ National Committee for Clinical Laboratory Standards. 2000).
# (§3) Kirby-Bauer disk diffusion susceptibility test protocol was utilized to determine the sensitivity or resistance of pathogenic bacteria against the compounds and others antibiotics. The absence of growth around the disks is an indirect measure of the ability of this compound to inhibit an organism (Kirby, W., et al., Antibiotics Annu. 1956-1957:892). After 18 to 72 hours of incubation at 37° C., with or without CO2, under aerobic or anaerobic conditions, depending on the bacterial species, halo of growth inhibition were obtained and evaluated.
# (§4) Interpretation of susceptibility and resistance was based on the presence or absence of a zone of inhibition surrounding the disk. Kirby-Bauer disk diffusion susceptibility test is a common method which uses antibiotic-impregnated wafers to test whether bacteria are affected by antibiotics. The size of the zone of inhibition depends on how effective the antibiotic is at stopping the growth of the bacterium. A stronger antibiotic will create a larger zone, because a lower concentration of the antibiotic is enough to stop growth.
# (§5) All compounds were tested at 300 μg/disc.
# P. aeruginosa = test: Kirby-Bauer disk diffusion susceptibility test; settings: 300 μg/disc
# Protocol: as §1, §2, §3, §4, §5
# A. niger = test: Antifungal disk diffusion susceptibility test (CLSI M44); settings: Aspergillus niger, A. niger
# Protocol: (§6) Filamentous fungi and yeasts strains, from clinical origin, were supplied by Microbiology Service from The Princess Hospital, Madrid. They are detailed in Table IX.
# (§7) Filamentous fungi and yeast cells suspensions in distilled water was prepared from a culture of 24-48 h, depending on species, in Sabouraud agar. Each suspension was adjusted to a fixed size inoculum of 1-5×10^8 CFU/ml with a spectrophotometer (Ferraro, MJ National Committee for Clinical Laboratory Standards. 2000).
# (§8) Antifungal susceptibility tests were developed following the standardized methodology detailed in document CLSI: M44-4: Method for Antifungal Disk diffusion susceptibility testing of yeasts consisting of disk diffusion on agar Muller-Hinton (supplemented with 2% glucose).
# A. fumigatus = test: as above; settings: Aspergillus fumigatus, A. fumigatus
# Protocol: as §6, §7, §8
# C. tropicalis = test: as above; settings: Candida tropicalis, C. tropicalis
# Protocol: as §6, §7, §8
# A. terreus = test: as above; settings: Aspergillus terreus, A. terreus
# Protocol: as §6, §7, §8
# A. flavus = test: as above; settings: Aspergillus flavus, A. flavus
# Protocol: as §6, §7, §8
# C. lusitaniae = test: as above; settings: Clavispora lusitaniae, C. lusitaniae
# Protocol: as §6, §7, §8
# C. albicans = test: as above; settings: Candida albicans, C. albicans
# Protocol: as §6, §7, §8
# C. guillermondii = test: as above; settings: C. guillermondii
# Protocol: as §6, §7, §8
# C. parapsilosis = test: as above; settings: Lodderomyces parapsilosis, C. parapsilosis
# Protocol: as §6, §7, §8
# S. cerevisiae = test: as above; settings: Saccharomyces cerevisiae, S. cerevisiae
# Protocol: as §6, §7, §8
# [1] = Cellular viability, CellTiter Glo; settings: human; MT-2 cells; concentration required to kill 50% of cells; read-out: CC50 VIH MT-2 μM
# Protocol: All assays for assessing anti-HIV activity were taken in parallel to determine cellular viability of the culture in the presence or absence of different concentrations of the isolated molecule. It was followed exactly the same methodology as in the anti-HIV assay except with the addition of complete DMEM medium instead of supernatant viral, in the same proportion, and the detection of the viability was performed with the viability detection kit CellTiter Glo (Promega), following manufacturer instructions. Viability is directly proportional to the luciferase activity obtained. All data are expressed as percentage relative to a control with DMSO at the same concentration. Antiviral activity and toxicity curves were performed to the compound at different concentrations.
# HIV = test: Anti-HIV assay, recombinant virus with Renilla reporter gene in MT-2 cells; settings: Human immunodeficiency virus 1, MT2, read-out: IC50 VIH MT-2 μM
# From the text: Assessment of in vitro antiviral activity is usually performed to estimate parameters of antiviral potency and efficacy represented by the percentage of inhibition of HIV activity or IC50. The assay utilized is based on the use of recombinant viruses in which the nef gene, […] for in vitro HIV replication, has been replaced by a Renilla reporter gene so that viral replication can be quantified directly (García-Perez J et al, J Med Virol. 2007 February; 79(2):127-37). The assay was performed infecting MT-2 cells or PHA-activated PBMCs/IL-2 with viral supernatants obtained previously. The study was development in AIDS Immunopathology Unit, Nacional Center of Microbiology, Institute of Health Carlos 111, Majadahonda, Madrid, Spain.
# All data are expressed as percentage relative to a control with DMSO at the same concentration. Antiviral activity and toxicity curves were performed to the compound at different concentrations.
structure (smiles),measurement,setting,value
NNC(=O)C(=O)NNc1ccccc1 [MSG-119],Activity detected (mm),A. baumannii,20 mm
same,Activity detected (mm),P. aeruginosa,15 mm
same,zone of inhibition at 150 µg/disc,A. niger; 150 μg/disc,24 mm
same,zone of inhibition at 500 µg/disc,A. niger; 500 μg/disc,> 40 mm
same,zone of inhibition at 150 µg/disc,A. fumigatus; 150 μg/disc,22 mm
same,zone of inhibition at 500 µg/disc,A. fumigatus; 500 μg/disc,> 40 mm
same,zone of inhibition at 150 µg/disc,C. tropicalis; 150 μg/disc,20 mm
same,zone of inhibition at 500 µg/disc,C. tropicalis; 500 μg/disc,> 40 mm
same,zone of inhibition at 150 µg/disc,A. terreus; 150 μg/disc,20 mm
same,zone of inhibition at 500 µg/disc,A. terreus; 500 μg/disc,> 40 mm
same,zone of inhibition at 150 µg/disc,A. flavus; 150 μg/disc,18 mm
same,zone of inhibition at 500 µg/disc,A. flavus; 500 μg/disc,> 40 mm
same,zone of inhibition at 150 µg/disc,C. lusitaniae; 150 μg/disc,< 10 mm
same,zone of inhibition at 500 µg/disc,C. lusitaniae; 500 μg/disc,20 mm
same,zone of inhibition at 150 µg/disc,C. albicans; 150 μg/disc,21 mm
same,zone of inhibition at 500 µg/disc,C. albicans; 500 μg/disc,24 mm
same,zone of inhibition at 150 µg/disc,C. guillermondii; 150 μg/disc,12 mm
same,zone of inhibition at 500 µg/disc,C. guillermondii; 500 μg/disc,> 40 mm
same,zone of inhibition at 150 µg/disc,C. parapsilosis; 150 μg/disc,15 mm
same,zone of inhibition at 500 µg/disc,C. parapsilosis; 500 μg/disc,> 40 mm
same,zone of inhibition at 150 µg/disc,S. cerevisiae; 150 μg/disc,26 mm
same,zone of inhibition at 500 µg/disc,S. cerevisiae; 500 μg/disc,35 mm
same,CC50,[1],> 100 µM
same,IC50,HIV,7.11 µM
